The source of these data is patent US11180494B2, “Substituted amino acids as integrin inhibitors” (Pliant Therapeutics, Inc., priority 2018, dated 2021).

Chain of human integrin αvβ6 (P06756 31-992): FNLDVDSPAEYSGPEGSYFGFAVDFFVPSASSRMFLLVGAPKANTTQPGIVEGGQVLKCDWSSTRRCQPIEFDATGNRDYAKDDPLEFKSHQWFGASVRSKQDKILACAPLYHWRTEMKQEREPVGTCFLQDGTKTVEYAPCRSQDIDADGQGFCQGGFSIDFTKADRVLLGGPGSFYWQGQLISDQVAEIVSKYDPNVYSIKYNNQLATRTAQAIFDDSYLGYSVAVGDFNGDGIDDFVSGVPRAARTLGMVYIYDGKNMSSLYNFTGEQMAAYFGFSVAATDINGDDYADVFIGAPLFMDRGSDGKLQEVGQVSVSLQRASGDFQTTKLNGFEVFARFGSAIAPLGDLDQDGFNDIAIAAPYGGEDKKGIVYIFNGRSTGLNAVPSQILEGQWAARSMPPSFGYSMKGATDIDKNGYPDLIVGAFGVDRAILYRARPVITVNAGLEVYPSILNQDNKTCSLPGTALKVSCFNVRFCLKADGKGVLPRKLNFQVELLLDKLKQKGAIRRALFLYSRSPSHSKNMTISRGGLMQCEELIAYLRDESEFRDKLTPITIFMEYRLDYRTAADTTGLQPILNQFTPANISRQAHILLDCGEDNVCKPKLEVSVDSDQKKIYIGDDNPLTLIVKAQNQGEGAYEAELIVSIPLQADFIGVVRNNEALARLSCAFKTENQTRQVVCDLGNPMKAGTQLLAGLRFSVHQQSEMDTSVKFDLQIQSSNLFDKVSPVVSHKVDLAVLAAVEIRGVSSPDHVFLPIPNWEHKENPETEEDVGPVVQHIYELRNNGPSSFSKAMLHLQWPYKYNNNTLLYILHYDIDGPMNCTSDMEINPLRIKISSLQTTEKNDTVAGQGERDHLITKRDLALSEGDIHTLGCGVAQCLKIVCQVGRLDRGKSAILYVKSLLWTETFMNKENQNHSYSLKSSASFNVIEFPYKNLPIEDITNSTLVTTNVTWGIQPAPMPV
Chain of human integrin αvβ6 (P18564 22-707): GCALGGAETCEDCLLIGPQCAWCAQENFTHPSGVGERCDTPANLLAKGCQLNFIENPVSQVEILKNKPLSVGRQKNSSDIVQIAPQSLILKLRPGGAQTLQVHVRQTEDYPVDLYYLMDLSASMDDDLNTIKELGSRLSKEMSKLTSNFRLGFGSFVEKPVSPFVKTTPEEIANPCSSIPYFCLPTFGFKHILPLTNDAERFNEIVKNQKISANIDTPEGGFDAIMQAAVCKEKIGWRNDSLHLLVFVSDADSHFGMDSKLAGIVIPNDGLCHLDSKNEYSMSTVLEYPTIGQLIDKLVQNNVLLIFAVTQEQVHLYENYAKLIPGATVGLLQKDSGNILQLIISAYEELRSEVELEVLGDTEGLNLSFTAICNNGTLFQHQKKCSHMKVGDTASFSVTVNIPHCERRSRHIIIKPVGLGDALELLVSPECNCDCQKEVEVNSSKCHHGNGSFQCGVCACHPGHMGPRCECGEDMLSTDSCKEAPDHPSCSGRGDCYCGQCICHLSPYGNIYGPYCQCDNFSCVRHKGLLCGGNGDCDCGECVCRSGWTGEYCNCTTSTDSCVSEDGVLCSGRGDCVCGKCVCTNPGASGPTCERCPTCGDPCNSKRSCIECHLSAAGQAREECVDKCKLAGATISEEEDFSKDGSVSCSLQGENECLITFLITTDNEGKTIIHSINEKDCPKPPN

The assay concerns the target human integrin αvβ6 (Homo sapiens (Human), UniProt P06756+P18564). Description: Proximity-based integrin receptor binding assay (ALPHASCREEN) for inhibitor potency. Particulars: inhibition of binding of TGF-b1 LAP to human integrin αvβ6; values given in ranges. The essentials: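 AlphaScreen: integrin, compound, TGF-b1 LAP, biotinylated anti-LAP antibody and acceptor beads incubated 2 hours, then streptavidin donor beads 30 minutes, at room temperature in 50 mM Tris-HCl pH 7.5, 0.1% BSA, 1 mM CaCl2 and MgCl2. Excitation 680 nm, emission 520-620 nm; IC50 by four-parameter logistic fit.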
Broadly, the IC50 is the midpoint of a concentration-inhibition curve. For the compound `CC(C)(C(=O)NC(CCO[C@H]1C[C@H](CCc2ccc3c(n2)NCCC3)C1)C(=O)O)c1ccc(F)cc1` (stereo partly drawn) [Compound 102, N-(2-(4-fluorophenyl)-2-methylpropanoyl)-O-(trans-3-(2-(5,6,7,8-tetrahydro-1,8-naphthyridin-2-yl)ethyl)cyclobutyl)homoserine], the IC50 is below 50 nM.

Consider `CC1(C(=O)NC(CCO[C@H]2C[C@H](CCc3ccc4c(n3)NCCC4)C2)C(=O)O)COC1` (stereo partly drawn) [Compound 103, N-(3-methyloxetane-3-carbonyl)-O-(trans-3-(2-(5,6,7,8-tetrahydro-1,8-naphthyridin-2-yl)ethyl)cyclobutyl)homoserine], for which the IC50 is below 50 nM.

For `CC(C)(CO)C(=O)NC(CCO[C@H]1C[C@H](CCc2ccc3c(n2)NCCC3)C1)C(=O)O` (stereo partly drawn) [Compound 104, N-(3-hydroxy-2,2-dimethylpropanoyl)-O-(trans-3-(2-(5,6,7,8-tetrahydro-1,8-naphthyridin-2-yl)ethyl)cyclobutyl)homoserine], the concentration for half-maximal inhibition (IC50) was below 50 nM.

On to `COCC(C)(C)C(=O)NC(CCO[C@H]1C[C@H](CCc2ccc3c(n2)NCCC3)C1)C(=O)O` (stereo partly drawn) [Compound 105, N-(3-methoxy-2,2-dimethylpropanoyl)-O-(trans-3-(2-(5,6,7,8-tetrahydro-1,8-naphthyridin-2-yl)ethyl)cyclobutyl)homoserine], for which the IC50 is below 50 nM.

Take `CC(C)(C(=O)NC(CCO[C@H]1C[C@H](CCc2ccc3c(n2)NCCC3)C1)C(=O)O)c1cccnc1` (stereo partly drawn) [Compound 106, N-(2-methyl-2-(pyridin-3-yl)propanoyl)-O-(trans-3-(2-(5,6,7,8-tetrahydro-1,8-naphthyridin-2-yl)ethyl)cyclobutyl)homoserine]: the IC50 is below 50 nM.

With `O=C(NC(CCO[C@H]1C[C@H](CCc2ccc3c(n2)NCCC3)C1)C(=O)O)C1Cc2ccccc2C1` (stereo partly drawn) [Compound 107, N-(2,3-dihydro-1H-indene-2-carbonyl)-O-(trans-3-(2-(5,6,7,8-tetrahydro-1,8-naphthyridin-2-yl)ethyl)cyclobutyl)homoserine], the IC50 is below 50 nM.

Consider `CC(C)(CC#N)C(=O)NC(CCO[C@H]1C[C@H](CCc2ccc3c(n2)NCCC3)C1)C(=O)O` (stereo partly drawn) [Compound 108, N-(3-cyano-2,2-dimethylpropanoyl)-O-(trans-3-(2-(5,6,7,8-tetrahydro-1,8-naphthyridin-2-yl)ethyl)cyclobutyl)homoserine], for which the IC50 was below 50 nM.

In the case of `CC(C)(C)C(=O)NC(CCO[C@H]1C[C@H](CCc2ccc3c(n2)NCCC3)C1)C(=O)O` (stereo partly drawn) [Compound 109, N-pivaloyl-O-(trans-3-(2-(5,6,7,8-tetrahydro-1,8-naphthyridin-2-yl)ethyl)cyclobutyl)homoserine], the IC50 is below 50 nM.

For the compound `CC(C)(C)COC(=O)N[C@@H](CCO[C@H]1C[C@H](CCc2ccc3c(n2)NCCC3)C1)C(=O)O` [Compound 112, N-((neopentyloxy)carbonyl)-O-(trans-3-(2-(5,6,7,8-tetrahydro-1,8-naphthyridin-2-yl)ethyl)cyclobutyl)homoserine], the IC50 was in the range of 50 to 250 nM.

As for `CC1(OC(=O)N[C@@H](CCO[C@H]2C[C@H](CCc3ccc4c(n3)NCCC4)C2)C(=O)O)CC1` [Compound 113, N-((1-methylcyclopropoxy)carbonyl)-O-(trans-3-(2-(5,6,7,8-tetrahydro-1,8-naphthyridin-2-yl)ethyl)cyclobutyl)homoserine], the IC50 is below 50 nM.

Consider `CC1(OC(=O)N[C@@H](CCO[C@H]2C[C@H](CCc3ccc4c(n3)NCCC4)C2)C(=O)O)CCC1` [Compound 114, N-((1-methylcyclobutoxy)carbonyl)-O-(trans-3-(2-(5,6,7,8-tetrahydro-1,8-naphthyridin-2-yl)ethyl)cyclobutyl)homoserine], for which the IC50 was below 50 nM.

For `CC(C)(OC(=O)N[C@@H](CCO[C@H]1C[C@H](CCc2ccc3c(n2)NCCC3)C1)C(=O)O)C(F)(F)F` [Compound 115, O-(trans-3-(2-(5,6,7,8-tetrahydro-1,8-naphthyridin-2-yl)ethyl)cyclobutyl)-N-(((1,1,1-trifluoro-2-methylpropan-2-yl)oxy)carbonyl)homoserine], the IC50 is below 50 nM.

Regarding `CC(C)OC(=O)N[C@@H](CCO[C@H]1C[C@H](CCc2ccc3c(n2)NCCC3)C1)C(=O)O` [Compound 116, N-(isopropoxycarbonyl)-O-(trans-3-(2-(5,6,7,8-tetrahydro-1,8-naphthyridin-2-yl)ethyl)cyclobutyl)homoserine], the half-inhibitory concentration (IC50) is below 50 nM.

Regarding `CCN(CC)C(=O)N[C@@H](CCO[C@H]1C[C@H](CCc2ccc3c(n2)NCCC3)C1)C(=O)O` [Compound 117, N-(diethylcarbamoyl)-O-(trans-3-(2-(5,6,7,8-tetrahydro-1,8-naphthyridin-2-yl)ethyl)cyclobutyl)homoserine], the IC50 is below 50 nM.

For `CC(C)(C)NC(=O)N[C@@H](CCO[C@H]1C[C@H](CCc2ccc3c(n2)NCCC3)C1)C(=O)O` [Compound 118, N-(tert-butylcarbamoyl)-O-(trans-3-(2-(5,6,7,8-tetrahydro-1,8-naphthyridin-2-yl)ethyl)cyclobutyl)homoserine], the IC50 is below 50 nM.

For `CN(C(=O)N[C@@H](CCO[C@H]1C[C@H](CCc2ccc3c(n2)NCCC3)C1)C(=O)O)C(C)(C)C` [Compound 119, N-(tert-butyl(methyl)carbamoyl)-O-(trans-3-(2-(5,6,7,8-tetrahydro-1,8-naphthyridin-2-yl)ethyl)cyclobutyl)homoserine], the IC50 was 50 to 250 nM.

Turning to `CC(C)N(C)C(=O)N[C@@H](CCO[C@H]1C[C@H](CCc2ccc3c(n2)NCCC3)C1)C(=O)O` [Compound 120, N-(isopropyl(methyl)carbamoyl)-O-(trans-3-(2-(5,6,7,8-tetrahydro-1,8-naphthyridin-2-yl)ethyl)cyclobutyl)homoserine], the IC50 is below 50 nM.

As to `CC(C)N(C(=O)N[C@@H](CCO[C@H]1C[C@H](CCc2ccc3c(n2)NCCC3)C1)C(=O)O)C(C)C` [Compound 121, N-(diisopropylcarbamoyl)-O-(trans-3-(2-(5,6,7,8-tetrahydro-1,8-naphthyridin-2-yl)ethyl)cyclobutyl)homoserine], the IC50 is below 50 nM.

Consider `CC(C)(C)CC(=O)N[C@@H](CCO[C@H]1C[C@H](CCc2ccc3c(n2)NCCC3)C1)C(=O)O` [Compound 122, N-(3,3-dimethylbutanoyl)-O-(trans-3-(2-(5,6,7,8-tetrahydro-1,8-naphthyridin-2-yl)ethyl)cyclobutyl)homoserine], for which the IC50 is 50 to 250 nM.

In the case of `CC(C)CC(=O)N[C@@H](CCO[C@H]1C[C@H](CCc2ccc3c(n2)NCCC3)C1)C(=O)O` [Compound 123, N-(3-methylbutanoyl)-O-(trans-3-(2-(5,6,7,8-tetrahydro-1,8-naphthyridin-2-yl)ethyl)cyclobutyl)homoserine], the IC50 was below 50 nM.

On to `O=C(CC1CCC1)N[C@@H](CCO[C@H]1C[C@H](CCc2ccc3c(n2)NCCC3)C1)C(=O)O` [Compound 124, N-(2-cyclobutylacetyl)-O-(trans-3-(2-(5,6,7,8-tetrahydro-1,8-naphthyridin-2-yl)ethyl)cyclobutyl)homoserine], for which the IC50 was below 50 nM.

For `CC1(CC(=O)N[C@@H](CCO[C@H]2C[C@H](CCc3ccc4c(n3)NCCC4)C2)C(=O)O)CC1` [Compound 125, N-(2-(1-methylcyclopropyl)acetyl)-O-(trans-3-(2-(5,6,7,8-tetrahydro-1,8-naphthyridin-2-yl)ethyl)cyclobutyl)homoserine], the half-inhibitory concentration (IC50) was 50 to 250 nM.

With `O=C(CC1CC1)N[C@@H](CCO[C@H]1C[C@H](CCc2ccc3c(n2)NCCC3)C1)C(=O)O` [Compound 126, N-(2-cyclopropylacetyl)-O-(trans-3-(2-(5,6,7,8-tetrahydro-1,8-naphthyridin-2-yl)ethyl)cyclobutyl)homoserine], the IC50 was below 50 nM.

With `CC(C)(C)OC(=O)N1CC(C)(OC(=O)N[C@@H](CCO[C@H]2C[C@H](CCc3ccc4c(n3)NCCC4)C2)C(=O)O)C1` [Compound 127, N-(((1-(tert-butoxycarbonyl)-3-methylazetidin-3-yl)oxy)carbonyl)-O-(trans-3-(2-(5,6,7,8-tetrahydro-1,8-naphthyridin-2-yl)ethyl)cyclobutyl)homoserine], the IC50 was below 50 nM.

`CC1(OC(=O)N[C@@H](CCO[C@H]2C[C@H](CCc3ccc4c(n3)NCCC4)C2)C(=O)O)CN(S(C)(=O)=O)C1` [Compound 128, N-(((3-methyl-1-(methylsulfonyl)azetidin-3-yl)oxy)carbonyl)-O-(trans-3-(2-(5,6,7,8-tetrahydro-1,8-naphthyridin-2-yl)ethyl)cyclobutyl)homoserine]: the IC50 was in the range of 50 to 250 nM.

In the case of `CC(=O)N1CC(C)(OC(=O)N[C@@H](CCO[C@H]2C[C@H](CCc3ccc4c(n3)NCCC4)C2)C(=O)O)C1` [Compound 129, N-(((1-acetyl-3-methylazetidin-3-yl)oxy)carbonyl)-O-(trans-3-(2-(5,6,7,8-tetrahydro-1,8-naphthyridin-2-yl)ethyl)cyclobutyl)homoserine], the concentration for half-maximal inhibition (IC50) lay within 50 to 250 nM.

In the case of `CC1(OC(=O)N[C@@H](CCO[C@H]2C[C@H](CCc3ccc4c(n3)NCCC4)C2)C(=O)O)CNC1` [Compound 130, N-(((3-methylazetidin-3-yl)oxy)carbonyl)-O-(trans-3-(2-(5,6,7,8-tetrahydro-1,8-naphthyridin-2-yl)ethyl)cyclobutyl)homoserine], the IC50 fell in the range of 50 to 250 nM.

Take `O=C(N[C@@H](CCO[C@H]1C[C@H](CCc2ccc3c(n2)NCCC3)C1)C(=O)O)OC1CCCCC1` [Compound 131, N-((cyclohexyloxy)carbonyl)-O-(trans-3-(2-(5,6,7,8-tetrahydro-1,8-naphthyridin-2-yl)ethyl)cyclobutyl)homoserine]: the IC50 is below 50 nM.

With `CC(C)COC(=O)N[C@@H](CCO[C@H]1C[C@H](CCc2ccc3c(n2)NCCC3)C1)C(=O)O` [Compound 132, N-(isobutoxycarbonyl)-O-(trans-3-(2-(5,6,7,8-tetrahydro-1,8-naphthyridin-2-yl)ethyl)cyclobutyl)homoserine], the IC50 fell in the range of 50 to 250 nM.
